According to PubChem BioAssay (NCI):
Several values for one entry are separate records, joined by “and”; a condition that tells them apart may be missing. Equal entries are not always repeated.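 All cell lines were grown in 96-well plates and treated with compound for 48 hours. GI50: concentration for 50% inhibition of growth. TGI: concentration producing complete growth inhibition.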

Key:
Assay in all cases: DTP human tumour cell line panel, 48 h
[1] = test system: OVCAR-4 ovarian
[2] = test system: SK-OV-3 ovarian
[3] = test system: T-47D breast
[4] = test system: UACC-62 melanoma
[5] = test system: NCI-H460 lung
[6] = test system: HCT-15 colon
[7] = test system: OVCAR-5 ovarian
[8] = test system: PC-3 prostate
[9] = test system: DLD-1 colon
[10] = test system: DMS 273 small cell lung

Row | SMILES | GI50 [1] | TGI [1] | GI50 [2] | TGI [2] | GI50 [3] | TGI [3] | GI50 [4] | TGI [4] | GI50 [5] | TGI [5] | GI50 [6] | TGI [6] | GI50 [7] | TGI [7] | GI50 [8] | TGI [8] | TGI [9] [µM] | TGI [10] [µM]
1 | CCn1c2ccccc2c2cc(C(=O)c3ccc(C)c4ccccc34)ccc21 | 3.32 µM | > 100 µM | 0.553 µM | > 100 µM | 0.76 µM | > 100 µM | 0.296 µM | 3.52 µM | 0.356 µM | > 100 µM | 0.329 µM | > 100 µM | 0.62 µM | > 100 µM | 0.392 µM | > 100 µM |  | 
2 | CC1(C)CCC[C@]2(C)c3ccccc3C(=O)CC12 (some centres undefined) | > 100 µM | > 100 µM | > 100 µM | > 100 µM | 53.5 µM | > 100 µM | 18.2 µM | > 100 µM | 34.9 µM | > 100 µM | 24.9 µM | > 100 µM | > 100 µM | > 100 µM | 42 µM | > 100 µM |  | 
3 | COc1ccc2c(c1)CCc1c-2n[nH]c1-c1[nH]nc2c1CCc1cc(OC)ccc1-2 |  |  |  | > 100 µM |  |  |  | > 100 µM |  | > 100 µM |  | > 100 µM |  | > 100 µM |  |  | > 100 | 52.8
4 | C[C@]12C[C@H](O)[C@H]3[C@@H](CCC4=CC(=O)CC[C@@]43C)[C@@H]1CC[C@@H]2c1csc(-c2ccccc2)n1 |  | > 73.8 µM |  | > 100 µM |  | > 100 µM |  | > 100 µM |  | > 100 µM |  | > 100 µM |  | > 100 µM |  | 20.3 µM |  | 
5 | COCCNc1cncc(C(N)=O)c1 |  | > 100 µM |  | > 100 µM |  | > 100 µM |  | > 100 µM |  | > 100 µM |  | > 100 µM |  | > 100 µM |  | > 100 µM |  | 
6 | CNC(=O)c1ccccc1Nc1nc(Nc2ccc3c(c2OC)CCC[C@H](N2CCN(CCO)CC2)C3)ncc1Cl | 1.72 µM and 3.45 µM | 13.4 µM and > 10 µM | 2.98 µM and 2.47 µM | 14.4 µM and 9.23 µM | 2.34 µM and 2.95 µM | 17.8 µM and > 10 µM | 1.58 µM and 1.35 µM | 4.02 µM and 3.39 µM | 0.892 µM and 0.574 µM | 13.3 µM and > 10 µM | 0.589 µM and 0.552 µM | 6.32 µM and 5.69 µM | 0.656 µM and 0.732 µM | 15.5 µM and > 10 µM | 3.01 µM and 2.06 µM | 15.5 µM and > 10 µM |  | 
7 | Cc1cc(O)c(-c2ccc([C@@H](C)CN(C)C)cc2)c2c1[nH]c(=O)c1sccc12 | 0.769 µM | 10.6 µM | 0.332 µM | 3.65 µM | 0.309 µM | 5.19 µM | 1.32 µM | 4.99 µM | 0.335 µM | > 49.1 µM | 1.42 µM | 31.3 µM | 2.25 µM | 17.5 µM | 0.667 µM | 18 µM |  | 
8 | C=C1CCC2C3(C)COC(c4ccccc4Cl)OC3CCC2(C)C1/C=C/C1=CCOC1=O (centres undefined) | 4.47 µM | > 100 µM | > 100 µM | > 100 µM | 3.39 µM | > 100 µM | 11.2 µM | > 100 µM | 5.96 µM | > 100 µM | 6.6 µM | > 100 µM | > 100 µM | > 100 µM | 3.17 µM | > 100 µM |  | 
9 | COc1ccc([C@@H]2OC(=O)C3C2C(=O)O[C@H]3c2ccc(OC)c(OC)c2)cc1OC (some centres undefined) |  | > 100 µM |  | > 100 µM |  |  |  | > 100 µM |  | > 100 µM |  | > 100 µM |  |  |  |  |  | > 100
10 | COc1ccc2c(c1)CN1CCc3c(cc(OC)c(OC)c3OC)C1C2 (centres undefined) |  | > 100 µM |  | > 100 µM |  |  |  | > 100 µM |  |  |  | > 100 µM |  | > 100 µM |  |  | > 100 | > 100
11 | CN1CCN(CCCOc2cc(O)c3c(=O)cc(-c4ccccc4)oc3c2)CC1 | 16.3 µM | 41 µM | 19.4 µM | 38.4 µM | 28 µM | 79.2 µM | 16.3 µM | 29.9 µM | 16.7 µM | 34.5 µM | 4.6 µM | 16.3 µM | 20.3 µM | 43.6 µM | 31.4 µM | > 100 µM |  | 
12 | CS(=O)(=O)N(c1cc(-c2ccc3ncnc(Nc4ccc(F)c(Cl)c4)c3c2)cnc1Cl)S(C)(=O)=O | 2.33 µM | 19.4 µM | 0.6 µM | 4.31 µM | 0.13 µM | 1.8 µM | 0.49 µM | 2.93 µM | 1.76 µM | 13.5 µM | 0.945 µM | 13.9 µM | 0.795 µM | 10.2 µM | 1.1 µM | 7.9 µM |  | 
13 | C/C=C(\C)C(=O)OC1/C=C(\C)CC/C=C(\C)CC2OC(=O)C(C)(OC(C)=O)C12 (centres undefined) |  | > 100 µM |  | > 100 µM |  | > 100 µM |  | > 100 µM |  | > 100 µM |  | > 100 µM |  | > 100 µM |  | > 100 µM |  | 
14 | CC1=CCCC2C(C=O)(C1)CC(C)C2(CO)CC/C(=C/CO)CO (centres undefined) |  |  |  | > 100 µM |  |  |  | > 100 µM |  | > 100 µM |  | > 100 µM |  |  |  |  | > 100 | > 100
15 | Nc1cccc2c1C(=O)c1cccc(NC(=O)c3ccccc3)c1C2=O | 5.07 µM | > 100 µM | 0.425 µM | 9.24 µM | 1.1 µM | > 100 µM | 0.221 µM | 14 µM | 0.371 µM | > 32.6 µM | 0.448 µM | > 100 µM | 1.92 µM | > 100 µM | 0.374 µM | > 100 µM |  | 
16 | CCCCn1c(=O)c(/C=C/C(=O)/C=C/c2cc3ccccc3n(CCCC)c2=O)cc2ccccc21 | 2.78 µM | 9.12 µM | 3.59 µM | 9.35 µM | 2.28 µM | 6.33 µM | 1.61 µM | 3.06 µM | 1.8 µM | 3.49 µM | 1.29 µM | 2.87 µM | 1.96 µM | 3.76 µM | 1.79 µM | 3.86 µM |  | 
17 | CCC(CO)Nc1nc2c(c(=O)n(C)c(=O)n2C)n1CCO (centres undefined) |  |  |  | > 100 µM |  |  |  | > 100 µM |  |  |  | > 100 µM |  | > 100 µM |  |  |  | > 100
18 | Cc1cccc2c1[nH]c(=O)c1c3ccccc3cn21 | 6.73 µM | > 100 µM | 27.5 µM | > 100 µM | 11.5 µM | 48.5 µM | 6.87 µM | 28.1 µM | 1.89 µM |  | 5.25 µM | 31.7 µM | 17.9 µM | 65.4 µM | 3.9 µM | 29.3 µM |  | 
